pEC50: −log10 of the molar value.
Biological target: T1, GLP-1 Receptor (Homo sapiens, UniProt P43220)
T1 construct: host or cells: HEK293/GLP1R/CRE-LUC (HEK293/CRE-Luc stably expressing the GLP-1 receptor)
Experiment: GLP-1R agonist cAMP stimulation assay (HEK293/GLP1R/CRE-LUC cells, Cisbio cAMP dynamic 2 kit);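 further: compounds tested in half-log serial dilution, cAMP detected with cAMP-d2 and anti-cAMP cryptate antibody reagents after 1 h at room temperature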
Assay type: cell-based
Conditions: HEK293/CRE-Luc cell line stably expressing the GLP-1 Receptor; 1000 cells/well; 30 min at 37° C.; 0.5 mM IBMX, 0.1% BSA; read-out: GLP1R cAMP Stimulation DR: EC50

T1 sequence (P43220 24-463, species assumed): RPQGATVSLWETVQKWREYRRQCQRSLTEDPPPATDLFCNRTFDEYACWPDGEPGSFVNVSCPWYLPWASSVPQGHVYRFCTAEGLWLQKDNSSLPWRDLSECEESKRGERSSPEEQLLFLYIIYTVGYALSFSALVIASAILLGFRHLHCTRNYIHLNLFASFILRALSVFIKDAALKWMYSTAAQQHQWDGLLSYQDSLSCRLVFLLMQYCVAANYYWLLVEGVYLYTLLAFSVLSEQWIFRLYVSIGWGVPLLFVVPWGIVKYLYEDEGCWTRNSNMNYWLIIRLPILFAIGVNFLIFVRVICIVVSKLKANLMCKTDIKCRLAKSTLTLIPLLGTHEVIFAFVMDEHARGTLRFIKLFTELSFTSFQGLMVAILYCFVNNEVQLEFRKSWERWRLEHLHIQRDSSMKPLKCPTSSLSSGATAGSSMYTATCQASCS

| SMILES | pEC50 |
| --- | --- |
| Cc1cc(-c2nnc(C(F)(F)F)[nH]2)cnc1CN1CCC(c2cccc3c2OC(C)(c2ccc(F)cc2F)O3)CC1 (centres unmarked) [Compound 262, 2-({4-[2-(2,4-difluorophenyl)-2-methyl-2H-1,3-benzodioxol-4-yl]piperidin-1-yl}methyl)-3-methyl-5-[5-(trifluoromethyl)-4H-1,2,4-triazol-3-yl]pyridine] | 8.52 |
| CCn1cncc1Cn1c(CCC(=O)O)cnc1CN1CCC(c2cccc(OCc3ccc(Cl)cc3F)n2)CC1 [Compound 244, 3-(2-((4-(6-((4-chloro-2-fluorobenzyl)oxy)pyridin-2-yl)piperidin-1-yl)methyl)-1-((1-ethyl-1H-imidazol-5-yl)methyl)-1H-imidazol-5-yl)propanoic acid] | 10.64 |
| Cc1cc(CCC(=O)O)cnc1CN1CCC(c2cccc(OCc3ccc(Cl)cc3F)n2)CC1 [Compound 117] | 5.48 |
| O=C(O)CCc1cnc(CN2CCC(c3cccc(OCc4ccc(Cl)cc4F)n3)CC2)n1C[C@@H]1CCO1 [Compound 102a, (S)-3-(2-((4-(6-((4-chloro-2-fluorobenzyl)oxy)pyridin-2-yl)piperidin-1-yl)methyl)-1-(oxetan-2-ylmethyl)-1H-imidazol-5-yl)propanoic acid] | 8.80 |
| CC1(c2ccc(Cl)cc2F)Oc2cccc(C3CCN(Cc4ncc(/C=C/C(=O)O)n4CCOC(F)F)CC3)c2O1 (centres unmarked) [Compound 168, (E)-3-(2-((4-(2-(4-chloro-2-fluorophenyl)-2-methylbenzo[d][1,3]dioxol-4-yl)piperidin-1-yl)methyl)-1-(2-(difluoromethoxy)ethyl)-1H-imidazol-5-yl)acrylic acid] | 10.34 |
| O=C(O)/C=C/c1nnc(CN2CCC(c3cccc(OCc4ccc(Cl)cc4F)n3)CC2)n1CC1CCOC1 (centres unmarked) [Compound 232, (E)-3-(5-((4-(6-((4-chloro-2-fluorobenzyl)oxy)pyridin-2-yl)piperidin-1-yl)methyl)-4-((tetrahydrofuran-3-yl)methyl)-4H-1,2,4-triazol-3-yl)acrylic acid] | 8.92 |
| Cc1cc(-c2nnc(C(F)F)[nH]2)cnc1CN1CCC(c2cccc3c2OC(C)(c2ccc(Cl)cc2F)O3)CC1 (centres unmarked) [Compound 257, 2-({4-[2-(4-chloro-2-fluorophenyl)-2-methyl-2H-1,3-benzodioxol-4-yl]piperidin-1-yl}methyl)-5-[5-(difluoromethyl)-4H-1,2,4-triazol-3-yl]-3-methylpyridine] | 7.85 |
| CC1(c2ccc(Cl)cc2F)Oc2cccc(C3CCN(Cc4ncc(/C=C/C(=O)O)n4CC4CCS4(=O)=O)CC3)c2O1 (centres unmarked) [Compound 165, (E)-3-(2-((4-(2-(4-chloro-2-fluorophenyl)-2-methylbenzo[d][1,3]dioxol-4-yl)piperidin-1-yl)methyl)-1-((1,1-dioxidothietan-2-yl)methyl)-1H-imidazol-5-yl)acrylic acid] | 10.85 |
| O=C(O)/C=C/c1nnc(CN2CCC(c3cccc(OCc4ccc(Cl)cc4F)n3)CC2)n1C[C@@H]1CCO1 [Compound 225a, (S,E)-3-(5-((4-(6-((4-chloro-2-fluorobenzyl)oxy)pyridin-2-yl)piperidin-1-yl)methyl)-4-(oxetan-2-ylmethyl)-4H-1,2,4-triazol-3-yl)acrylic acid] | 9.59 |
| CC1(c2ccc(Cl)cc2F)Oc2cccc(C3CCN(Cc4ncc(-c5nnc(C(F)(F)F)[nH]5)cc4CC4CCCS4(=O)=O)CC3)c2O1 (centres unmarked) [Compound 266, 2-{[2-({4-[2-(4-chloro-2-fluorophenyl)-2-methyl-2H-1,3-benzodioxol-4-yl]piperidin-1-yl}methyl)-5-[5-(trifluoromethyl)-4H-1,2,4-triazol-3-yl]pyridin-3-yl]methyl}-1λ^6-thiolane-1,1-dione] | 8.00 |
| Cn1c(/C=C/C(=O)O)cnc1CN1CCC(c2cccc(OCc3ccc(Cl)cc3F)n2)CC1 [Compound 104, (E)-3-(2-((4-(6-((4-chloro-2-fluorobenzyl)oxy)pyridin-2-yl)piperidin-1-yl)methyl)-1-methyl-1H-imidazol-5-yl)acrylic acid] | 8.46 |
| O=C(O)/C=C/c1ccc(CN2CCC(c3cccc(OCc4ccc(Cl)cc4F)n3)CC2)nc1 [Compound 123, (E)-3-(6-((4-(6-((4-chloro-2-fluorobenzyl)oxy)pyridin-2-yl)piperidin-1-yl)methyl)pyridin-3-yl)acrylic acid] | 6.96 |
| Cc1cc(C(=O)O)cnc1CN1CCC(c2cccc(OCc3ccc(Cl)cc3F)n2)CC1 [Compound 129, 6-((4-(6-((4-chloro-2-fluorobenzyl)oxy)pyridin-2-yl)piperidin-1-yl)methyl)-5-methylnicotinic acid] | 5.82 |

Other lines, results leading:

| pEC50 | SMILES |
| --- | --- |
| 10.82 | CC1(c2ccc(Cl)cc2F)Oc2cccc(C3CCN(Cc4ncc(/C=C/C(=O)O)n4Cc4ncco4)CC3)c2O1 (centres unmarked) [Compound 183, (E)-3-(2-((4-(2-(4-chloro-2-fluorophenyl)-2-methylbenzo[d][1,3]dioxol-4-yl)piperidin-1-yl)methyl)-1-(oxazol-2-ylmethyl)-1H-imidazol-5-yl)acrylic acid] |
| 10.92 | CCn1cncc1Cn1c(/C=C/C(=O)O)nnc1CN1CCC(c2cccc3c2OC(C)(c2ccc(Cl)cc2F)O3)CC1 (centres unmarked) [Compound 142, (E)-3-(5-((4-(2-(4-chloro-2-fluorophenyl)-2-methylbenzo[d][1,3]dioxol-4-yl)piperidin-1-yl)methyl)-4-((1-ethyl-1H-imidazol-5-yl)methyl)-4H-1,2,4-triazol-3-yl)acrylic acid] |
| 10.16 | COC1(Cn2c(/C=C/C(=O)O)cnc2CN2CCC(c3cccc4c3OC(C)(c3ccc(Cl)cc3F)O4)CC2)CCC1 (centres unmarked) [Compound 166, (E)-3-(2-((4-(2-(4-chloro-2-fluorophenyl)-2-methylbenzo[d][1,3]dioxol-4-yl)piperidin-1-yl)methyl)-1-((1-methoxycyclobutyl)methyl)-1H-imidazol-5-yl)acrylic acid] |
| 11.47 | CCn1cncc1Cn1c(/C=C(\C)C(=O)O)cnc1CN1CCC(c2cccc3c2OC(C)(c2ccc(Cl)cc2F)O3)CC1 (centres unmarked) [Compound 138, (E)-3-(2-((4-(2-(4-chloro-2-fluorophenyl)-2-methylbenzo[d][1,3]dioxol-4-yl)piperidin-1-yl)methyl)-1-((1-ethyl-1H-imidazol-5-yl)methyl)-1H-imidazol-5-yl)-2-methylacrylic acid] |
| 10.32 | CO[C@@H](C)Cn1c(/C=C/C(=O)O)cnc1CN1CCC(c2cccc3c2O[C@@](C)(c2ccc(Cl)cc2F)O3)CC1 [Compound 172a, (E)-3-(2-((4-((S)-2-(4-chloro-2-fluorophenyl)-2-methylbenzo[d][1,3]dioxol-4-yl)piperidin-1-yl)methyl)-1-((S)-2-methoxypropyl)-1H-imidazol-5-yl)acrylic acid] |
| 11.02 | C[C@]1(c2ccc(Cl)cc2F)Oc2cccc(C3CCN(Cc4ncc(/C=C/C(=O)O)n4CCOCC(F)(F)F)CC3)c2O1 [Compound 198a, (S,E)-3-(2-((4-(2-(4-chloro-2-fluorophenyl)-2-methylbenzo[d][1,3]dioxol-4-yl)piperidin-1-yl)methyl)-1-(2-(2,2,2-trifluoroethoxy)ethyl)-1H-imidazol-5-yl)acrylic acid] |
| 10.07 | CC1(c2ccc(Cl)cc2F)Oc2cccc(C3CCN(Cc4ncc(/C=C/C(=O)O)n4C[C@@H]4CCOC4)CC3)c2O1 (stereo partly drawn) [Compound 156, (E)-3-(2-((4-(2-(4-chloro-2-fluorophenyl)-2-methylbenzo[d][1,3]dioxol-4-yl)piperidin-1-yl)methyl)-1-(((S)-tetrahydrofuran-3-yl)methyl)-1H-imidazol-5-yl)acrylic acid] |
| 10.29 | COC(C)Cn1c(/C=C/C(=O)O)cnc1CN1CCC(c2cccc3c2OC(C)(c2ccc(Cl)cc2F)O3)CC1 (centres unmarked) [Compound 159, (E)-3-(2-((4-(2-(4-chloro-2-fluorophenyl)-2-methylbenzo[d][1,3]dioxol-4-yl)piperidin-1-yl)methyl)-1-(2-methoxypropyl)-1H-imidazol-5-yl)acrylic acid] |
| 10.92 | CC1(c2ccc(Cl)cc2F)Oc2cccc(C3CCN(Cc4ncc(/C=C/C(=O)O)n4C[C@H]4CCOC4)CC3)c2O1 (stereo partly drawn) [Compound 154, (E)-3-(2-((4-(2-(4-chloro-2-fluorophenyl)-2-methylbenzo[d][1,3]dioxol-4-yl)piperidin-1-yl)methyl)-1-(((R)-tetrahydrofuran-3-yl)methyl)-1H-imidazol-5-yl)acrylic acid] |
| 11.17 | C[C@H](Cn1c(/C=C/C(=O)O)cnc1CN1CCC(c2cccc3c2O[C@@](C)(c2ccc(Cl)cc2F)O3)CC1)OC1CC1 [Compound 170b, (E)-3-(2-((4-((S)-2-(4-chloro-2-fluorophenyl)-2-methylbenzo[d][1,3]dioxol-4-yl)piperidin-1-yl)methyl)-1-((R)-2-cyclopropoxypropyl)-1H-imidazol-5-yl)acrylic acid] |
| 11.92 | CCn1cncc1Cn1c(/C=C/C(=O)O)cnc1CN1CCC(c2cccc3c2O[C@@](C)(c2ccc(Cl)cc2F)O3)CC1 [Compound 139a, (S,E)-3-(2-((4-(2-(4-chloro-2-fluorophenyl)-2-methylbenzo[d][1,3]dioxol-4-yl)piperidin-1-yl)methyl)-1-((1-ethyl-1H-imidazol-5-yl)methyl)-1H-imidazol-5-yl)acrylic acid] |
| 11.27 | C[C@]1(c2ccc(Cl)cc2F)Oc2cccc(C3CCN(Cc4ncc(/C=C/C(=O)O)n4C[C@H]4CCOC4)CC3)c2O1 [Compound 155, (E)-3-(2-((4-((S)-2-(4-chloro-2-fluorophenyl)-2-methylbenzo[d][1,3]dioxol-4-yl)piperidin-1-yl)methyl)-1-(((R)-tetrahydrofuran-3-yl)methyl)-1H-imidazol-5-yl)acrylic acid] |
| 9.92 | CC1(c2ccc(Cl)cc2F)Oc2cccc(C3CCN(Cc4ncc(/C=C/C(=O)O)n4C[C@H]4CCCO4)CC3)c2O1 (stereo partly drawn) [Compound 160, (E)-3-(2-((4-(2-(4-chloro-2-fluorophenyl)-2-methylbenzo[d][1,3]dioxol-4-yl)piperidin-1-yl)methyl)-1-(((R)-tetrahydrofuran-2-yl)methyl)-1H-imidazol-5-yl)acrylic acid] |

Source: patent publication US11897851B2, “Heterocyclic GLP-1 agonists” (Gasherbrum Bio, Inc., priority 2021, dated 2024)
